The source of these data is patent US20080247987A1, “Block Copolymer Compositions and Uses Thereof” (ANGIOTECH INTERNATIONAL AG, priority 2005, published 2008).

For series [1] the following is noted: cited from earlier work.
The subject of another series is prostate tumors. The settings on record: via inhibition of angiogenesis; cited from earlier work.
In series [2] the test system is collagen induced arthritis. To be noted: animal model; cited from earlier work.
For series [3], the system named is arthritis after anterior cruciate ligament transection. Briefly: Surgical transection of the anterior cruciate ligament (mechanical arthritis model). Format: in vivo, Hartley Guinea pigs. The settings on record: introduced into the joint. The source says: Hartley Guinea pigs subjected to surgical transaction of the anterior cruciate ligament represent a mechanical model for arthritis. Typically after the anterior cruciate is severed, the animals develop arthritis within several weeks.

In a further series the test system is angiogenesis. To be noted: cited from earlier work.
Another series can be described thus: physchem. To be noted: organic solvent or mixture, thermodynamic from solid.
A further series concerns neutrophil. The settings on record: cited from earlier work.
A further series deals with AP-1. To be noted: via reduced AP-1 binding to DNA; cited from earlier work.
For the next series, the system named is synoviocytes. To be noted: cited from earlier work.
The subject of series [4] is human prostate cancer cell. The settings on record: in vitro; cited from earlier work.
Series [5] deals with normal chondrocytes and non-proliferating synoviocytes. To be noted: cited from earlier work.
The test system of series [6] is advanced breast, ovarian and non-small cell lung cancer. To be noted: in vivo; cited from earlier work.
A further series relates to T-cell. The settings on record: cited from earlier work.
For series [7], the system named is carrageenin-induced arthritis. Briefly: Inflammatory carrageenin-induced arthritis model. Format: in vivo. The settings on record: rabbits.
Series [8] has as its system prostate cancer. To be noted: in vitro; cited from earlier work.
Series [9] concerns prostate cancer. The settings on record: in vivo; cited from earlier work.

SMILES strings stand for the structures. In brackets after ≈: the same amount, converted by molar mass. Where two headings read alike, the source gives them in different places.

Description for physchem: The phase separation of the PEG400-TMC/Gly(90/10)900 triblock copolymer from PEG 300 in the presence of water was evaluated to predict its behavior upon dilution in a largely aqueous physiological environment. […] The phase separation is expected to form a PEG 300-rich phase and a PEG400-TMC/Gly(90/10)900-rich phase, the former containing the highest proportion of water. […] Solubility in the PEG 300-rich phase was estimated from co-solvent studies of water/PEG 300 mixtures.

As for `C[C@@H]1[C@H](O)[C@@H](C)/C=C/C=C/C=C/C=C/C=C/C=C/C=C/[C@H](O[C@@H]2O[C@H](C)[C@@H](O)[C@H](N)[C@@H]2O)C[C@@H]2O[C@](O)(C[C@@H](O)C[C@@H](O)[C@H](O)CC[C@@H](O)C[C@@H](O)CC(=O)O[C@H]1C)C[C@H](O)[C@H]2C(=O)O` [Amphotericin], the “solubility in water” value in series [1] (pH 6 to 7) is recorded as “insoluble in water”.

As for `O=C1c2c(O)cccc2Cc2cccc(O)c21` [Anthralin], the “solubility in water” value in series [1] is recorded as “practically insoluble in water”.

Turning to `CC[C@@]1(O)C(=O)OCc2c1cc1n(c2=O)Cc2cc3ccccc3nc2-1` [Camptothecin], the solubility in water in series [1] is 0.001 to 0.002 mg/mL.

In the case of `COc1cc(/C=C/C(=O)CC(=O)/C=C/c2ccc(O)c(OC)c2)ccc1O` [Curcumin], the “solubility in water” value in series [1] is recorded as “practically insoluble in water”.

Regarding `O=c1c(-c2ccc(O)cc2)coc2cc(O)cc(O)c12` [Genistein], in series [1], the “solubility in water” value is recorded as “practically insoluble in water”.

`COc1ccc2c(c1)c(CC(=O)O)c(C)n2C(=O)c1ccc(Cl)cc1` [Indomethacin]: the “solubility in water” value in series [1] is on record as “practically insoluble in water”.

As for `CN(C(=O)c1c(O)c2ccccc2n(C)c1=O)c1ccccc1` [Linomide], in the series on prostate tumors, the “antitumor and antimetastatic effects” value was “both antitumor and antimetastatic effects”.

As for `CC(=O)O[C@H]1C(=O)[C@@]2(C)[C@H]([C@H](OC(=O)c3ccccc3)[C@]3(O)C[C@H](OC(=O)[C@H](O)[C@@H](NC(=O)c4ccccc4)c4ccccc4)C(C)=C1C3(C)C)[C@]1(OC(C)=O)CO[C@@H]1C[C@@H]2O` [Paclitaxel], the collagen induced arthritis entry in [2] is reported as “inhibits collagen induced arthritis”. The “effect on arthritic process, cartilage and bone” value in series [3] is “greatly retarded the arthritic process and protected not only the cartilage, but also the underlying bone, from breakdown”. The angiogenesis result with angiogenesis was “potent inhibitory effect on angiogenesis”. In addition, the solubility in the series “physchem” is 250 mg/mL (≈ 293 mM). In addition, the neutrophil activation result with neutrophil is “inhibits neutrophil activation”. The solubility in water in series [1] was 0.001 to 0.002 mg/mL. Also, the AP-1 transcription activity entry in the series on AP-1 is “inhibits AP-1 transcription activity”. Further, in the series with synoviocytes, the apoptosis in synoviocytes entry was “induces apoptosis in synoviocytes” and the proliferation of synoviocytes entry was “prevents the proliferation of”. The “prostate cancer cell growth” value in series [4] is “inhibit human prostate cancer cell growth in vitro”. For the same molecule, the “toxicity to non-proliferating cells” value in series [5] was “non-toxic to non-proliferating cells”. Moreover, the “efficacy against advanced cancers” value in series [6] was “shown efficacy against advanced breast, ovarian and non-small cell lung cancer”. In the series with T-cell, the T-cell function result is recorded as “inhibits T-cell function” and the “T-cell response to stimuli” value was “decreases T-cell response to stimuli”. In addition, the effect on cartilage entry in [7] is “demonstrated cartilage”.

Consider `CC1=C(/C=C/C(C)=C/C=C/C(C)=C/C(=O)O)C(C)(C)CCC1` [Tretinoin], for which the “solubility in water” value in [1] is given as “practically insoluble in water”.

For the molecule `C[C@]12CC[C@@H]3c4ccc(OC(=O)N(CCCl)CCCl)cc4CC[C@H]3[C@@H]1CC[C@@H]2O` [estramustine], the “efficacy against prostate cancer” value with prostate cancer [8] and with prostate cancer [9] was “some efficacy against prostate cancer” throughout.

`CC[C@]1(O)C[C@@H]2CN(CCc3c([nH]c4ccccc34)[C@@](C(=O)OC)(c3cc4c(cc3OC)N(C)[C@H]3[C@@](O)(C(=O)OC)[C@H](OC(C)=O)[C@]5(CC)C=CCN6CC[C@]43[C@@H]65)C2)C1` [vinblastine]: the “efficacy against prostate cancer” value in the series with prostate cancer [8] and with prostate cancer [9] was “some efficacy against prostate cancer” throughout.

The term solubility denotes the concentration that dissolves in the medium under given conditions.
